Laboratory results taken from patent publication US7745575B1 (Cellpep Pharma Inc., priority 2004, dated 2010).
Bridge positions count the residues as written; N and C are the ends. Peptide text beside a SMILES is read from it. * marks the point of attachment. Pentanoyl = CCCCC(=O)*

Experiment: toxicity in vivo, LD50 after intracerebroventricular injection
Settings: mouse, icv or intrathecal, 20 g C57/BL6 mice
Method: Groups of six to eight mice per dose were injected with 5 μl peptide solution containing 0.1% (w/v) bovine serum albumin and 0.9% (w/v) NaCl. The LD50 values are set out in Table 5.

| SMILES | LD50 [µg/kg] |
| --- | --- |
| CC[C@H](C)[C@@H]1NC(=O)[C@H](CCCCN)NC(=O)[C@@H](NC(=O)[C@H](CCCCN)NC(=O)[C@@H](NC(=O)[C@H](CC(N)=O)NC(=O)[C@@H](NC(=O)[C@@H](NC(=O)[C@@H](NC(=O)CN)C(C)C)[C@@H](C)CC)[C@@H](C)CC)C(C)C)CSSC[C@@H]2NC(=O)[C@H](CCCCN)NC(=O)CNC(=O)[C@H](Cc3ccccc3)NC(=O)[C@H](CCCNC(=N)N)NC(=O)[C@H](CCSC)NC(=O)CNC(=O)[C@H](C)NC(=O)[C@H](CC(=O)O)NC(=O)[C@H](CCCCN)NC(=O)[C@@H]3CSSC[C@@H](C(=O)N[C@H](C(=O)N4CCC[C@H]4C(=O)N[C@@H](CCCCN)C(=O)O)[C@@H](C)O)NC(=O)[C@H](Cc4c[nH]cn4)NC(=O)[C@H](CSSC[C@H](NC(=O)[C@H](CCC(N)=O)NC(=O)[C@@H]4CCCN4C(=O)[C@H](CO)NC1=O)C(=O)N[C@@H](CC(C)C)C(=O)N[C@@H](CCCCN)C(=O)N1CCC[C@H]1C(=O)N3)NC(=O)[C@H](CCCCN)NC(=O)CNC(=O)[C@H](CC(N)=O)NC(=O)[C@H](CCSC)NC2=O (H-GVIINVKCKISPQCLKPCKDAGMRFGKCMNGKCHCTPK-OH; disulfide 8-28, 14-33, 18-35) | 7.5 |
| CC[C@H](C)[C@@H]1NC(=O)[C@H](CCCCN)NC(=O)[C@@H](NC(=O)[C@H](CCCCN)NC(=O)[C@@H](NC(=O)[C@H](CC(N)=O)NC(=O)[C@@H](NC(=O)[C@@H](NC(=O)[C@@H](NC(=O)CN)C(C)C)[C@@H](C)CC)[C@@H](C)CC)C(C)C)CSSC[C@@H]2NC(=O)[C@H](CCCCN)NC(=O)CNC(=O)[C@H](Cc3ccccc3)NC(=O)[C@H](CCCNC(=N)N)NC(=O)[C@H](CCSC)NC(=O)CNC(=O)[C@H](C)NC(=O)[C@H](CC(=O)O)NC(=O)[C@H](CCCCN)NC(=O)[C@@H]3CSSC[C@@H](C(=O)O)NC(=O)[C@H](Cc4c[nH]cn4)NC(=O)[C@H](CSSC[C@H](NC(=O)[C@H](CCC(N)=O)NC(=O)[C@H](CCCNC(=N)N)NC(=O)[C@H](CO)NC1=O)C(=O)N[C@@H](CC(C)C)C(=O)N[C@@H](CCCCN)C(=O)N1CCC[C@H]1C(=O)N3)NC(=O)[C@H](CCCCN)NC(=O)CNC(=O)[C@H](CC(N)=O)NC(=O)[C@H](CCSC)NC2=O (H-GVIINVKCKISRQCLKPCKDAGMRFGKCMNGKCHC-OH; disulfide 8-28, 14-33, 18-35) | 800 |
| CC[C@H](C)[C@@H]1NC(=O)[C@H](CCCCN)NC(=O)[C@@H](NC(=O)[C@H](CCCCN)NC(=O)[C@@H](NC(=O)[C@H](CC(N)=O)NC(=O)[C@@H](NC(=O)[C@@H](NC(=O)[C@@H](NC(=O)CN)C(C)C)[C@@H](C)CC)[C@@H](C)CC)C(C)C)CSSC[C@@H]2NC(=O)[C@H](CCCCN)NC(=O)CNC(=O)[C@H](CC(N)=O)NC(=O)[C@H](CCCNC(=N)N)NC(=O)[C@H](CCSC)NC(=O)CNC(=O)[C@H](C)NC(=O)[C@H](CC(=O)O)NC(=O)[C@H](CCCCN)NC(=O)[C@@H]3CSSC[C@@H](C(=O)N[C@H](C(=O)N4CCC[C@H]4C(=O)N[C@@H](CCCCN)C(=O)O)[C@@H](C)O)NC(=O)[C@H](Cc4c[nH]cn4)NC(=O)[C@H](CSSC[C@H](NC(=O)[C@H](CCC(N)=O)NC(=O)[C@H](CCCNC(=N)N)NC(=O)[C@H](CO)NC1=O)C(=O)N[C@@H](CC(C)C)C(=O)N[C@@H](CCCCN)C(=O)N1CCC[C@H]1C(=O)N3)NC(=O)[C@H](CCCCN)NC(=O)CNC(=O)[C@H](CC(N)=O)NC(=O)[C@H](CCSC)NC2=O (H-GVIINVKCKISRQCLKPCKDAGMRNGKCMNGKCHCTPK-OH; disulfide 8-28, 14-33, 18-35) | 11.5 |
| CC[C@H](C)[C@@H]1NC(=O)[C@H](CCCCN)NC(=O)[C@@H](NC(=O)[C@@H](N)CCCCN)CSSC[C@@H]2NC(=O)[C@H](CCCCN)NC(=O)CNC(=O)[C@H](Cc3ccccc3)NC(=O)[C@H](CCCNC(=N)N)NC(=O)[C@H](CCSC)NC(=O)CNC(=O)[C@H](C)NC(=O)[C@H](CC(=O)O)NC(=O)[C@H](CCCCN)NC(=O)[C@@H]3CSSC[C@@H](C(=O)N[C@H](C(=O)N4CCC[C@H]4C(=O)N[C@@H](CCCCN)C(=O)O)[C@@H](C)O)NC(=O)[C@H](Cc4c[nH]cn4)NC(=O)[C@H](CSSC[C@H](NC(=O)[C@H](CCC(N)=O)NC(=O)[C@H](CCCNC(=N)N)NC(=O)[C@H](CO)NC1=O)C(=O)N[C@@H](CC(C)C)C(=O)N[C@@H](CCCCN)C(=O)N1CCC[C@H]1C(=O)N3)NC(=O)[C@H](CCCCN)NC(=O)CNC(=O)[C@H](CC(N)=O)NC(=O)[C@H](CCSC)NC2=O (H-KCKISRQCLKPCKDAGMRFGKCMNGKCHCTPK-OH; disulfide 2-22, 8-27, 12-29) | 6.5 |
| CC[C@H](C)[C@@H]1NC(=O)[C@H](CCCCN)NC(=O)[C@@H](NC(=O)[C@H](CCCCN)NC(=O)[C@@H](NC(=O)[C@@H](N)CC(N)=O)C(C)C)CSSC[C@@H]2NC(=O)[C@H](CCCCN)NC(=O)CNC(=O)[C@H](Cc3ccccc3)NC(=O)[C@H](CCCNC(=N)N)NC(=O)[C@H](CCSC)NC(=O)CNC(=O)[C@H](C)NC(=O)[C@H](CC(=O)O)NC(=O)[C@H](CCCCN)NC(=O)[C@@H]3CSSC[C@@H](C(=O)N[C@H](C(=O)N4CCC[C@H]4C(=O)N[C@@H](CCCCN)C(=O)O)[C@@H](C)O)NC(=O)[C@H](Cc4c[nH]cn4)NC(=O)[C@H](CSSC[C@H](NC(=O)[C@H](CCC(N)=O)NC(=O)[C@H](CCCNC(=N)N)NC(=O)[C@H](CO)NC1=O)C(=O)N[C@@H](CC(C)C)C(=O)N[C@@H](CCCCN)C(=O)N1CCC[C@H]1C(=O)N3)NC(=O)[C@H](CCCCN)NC(=O)CNC(=O)[C@H](CC(N)=O)NC(=O)[C@H](CCSC)NC2=O (H-NVKCKISRQCLKPCKDAGMRFGKCMNGKCHCTPK-OH; disulfide 4-24, 10-29, 14-31) | 5 |
| CC[C@H](C)[C@@H]1NC(=O)[C@H](CCCCN)NC(=O)[C@@H](NC(=O)[C@H](CCCCN)NC(=O)[C@@H](NC(=O)[C@H](CC(N)=O)NC(=O)[C@@H](NC(=O)[C@@H](NC(=O)[C@@H](N)[C@@H](C)O)[C@@H](C)CC)[C@@H](C)CC)C(C)C)CSSC[C@@H]2NC(=O)[C@H](CCCCN)NC(=O)CNC(=O)[C@H](Cc3ccccc3)NC(=O)[C@H](CCCNC(=N)N)NC(=O)[C@H](CCSC)NC(=O)CNC(=O)[C@H](C)NC(=O)[C@H](CC(=O)O)NC(=O)[C@H](CCCCN)NC(=O)[C@@H]3CSSC[C@@H](C(=O)N[C@H](C(=O)N4CCC[C@H]4C(=O)N[C@@H](CCCCN)C(=O)O)[C@@H](C)O)NC(=O)[C@H](Cc4c[nH]cn4)NC(=O)[C@H](CSSC[C@H](NC(=O)[C@H](CCC(N)=O)NC(=O)[C@H](CCCNC(=N)N)NC(=O)[C@H](CO)NC1=O)C(=O)N[C@@H](CC(C)C)C(=O)N[C@@H](CCCCN)C(=O)N1CCC[C@H]1C(=O)N3)NC(=O)[C@H](CCCCN)NC(=O)CNC(=O)[C@H](CC(N)=O)NC(=O)[C@H](CCSC)NC2=O (H-TIINVKCKISRQCLKPCKDAGMRFGKCMNGKCHCTPK-OH; disulfide 7-27, 13-32, 17-34) | 3 |
| CC[C@H](C)[C@@H]1NC(=O)[C@H](CCCCN)NC(=O)[C@@H](NC(=O)[C@H](CCCCN)NC(=O)[C@@H](NC(=O)[C@H](CC(N)=O)NC(=O)[C@@H](NC(=O)[C@@H](NC(=O)[C@@H](N)C(C)C)[C@@H](C)CC)[C@@H](C)CC)C(C)C)CSSC[C@@H]2NC(=O)[C@H](CCCCN)NC(=O)CNC(=O)[C@H](Cc3ccccc3)NC(=O)[C@H](CCCNC(=N)N)NC(=O)[C@H](CCSC)NC(=O)CNC(=O)[C@H](C)NC(=O)[C@H](CC(=O)O)NC(=O)[C@H](CCCCN)NC(=O)[C@@H]3CSSC[C@@H](C(=O)N[C@H](C(=O)N4CCC[C@H]4C(=O)N[C@@H](CCCCN)C(N)=O)[C@@H](C)O)NC(=O)[C@H](Cc4c[nH]cn4)NC(=O)[C@H](CSSC[C@H](NC(=O)[C@H](CCC(N)=O)NC(=O)[C@H](CCCNC(=N)N)NC(=O)[C@H](CO)NC1=O)C(=O)N[C@@H](CC(C)C)C(=O)N[C@@H](CCCCN)C(=O)N1CCC[C@H]1C(=O)N3)NC(=O)[C@H](CCCCN)NC(=O)CNC(=O)[C@H](CC(N)=O)NC(=O)[C@H](CCSC)NC2=O (H-VIINVKCKISRQCLKPCKDAGMRFGKCMNGKCHCTPK-NH2; disulfide 7-27, 13-32, 17-34) | 4.5 |
| CC[C@H](C)[C@@H]1NC(=O)[C@H](CCCCN)NC(=O)[C@@H](NC(=O)[C@H](CCCCN)NC(=O)[C@@H](NC(=O)[C@H](CC(N)=O)NC(=O)[C@@H](NC(=O)[C@@H](NC(=O)[C@@H](N)C(C)C)[C@@H](C)CC)[C@@H](C)CC)C(C)C)CSSC[C@@H]2NC(=O)[C@H](CCCCN)NC(=O)CNC(=O)[C@H](Cc3ccccc3)NC(=O)[C@H](CCCNC(=N)N)NC(=O)[C@H](CCSC)NC(=O)CNC(=O)[C@H](C)NC(=O)[C@H](CC(=O)O)NC(=O)[C@H](CCCCN)NC(=O)[C@@H]3CSSC[C@@H](C(=O)N[C@H](C(=O)N4CCC[C@H]4C(=O)N[C@@H](CCCCN)C(=O)O)[C@@H](C)O)NC(=O)[C@H](Cc4c[nH]cn4)NC(=O)[C@H](CSSC[C@H](NC(=O)[C@H](CCC(N)=O)NC(=O)[C@H](CCCNC(=N)N)NC(=O)[C@H](CO)NC1=O)C(=O)N[C@@H](CC(C)C)C(=O)N[C@@H](CCCCN)C(=O)N1CCC[C@H]1C(=O)N3)NC(=O)[C@H](CCCCN)NC(=O)CNC(=O)[C@H](CC(N)=O)NC(=O)[C@H](CCSC)NC2=O (H-VIINVKCKISRQCLKPCKDAGMRFGKCMNGKCHCTPK-OH; disulfide 7-27, 13-32, 17-34) | 3 |
| CCCCC(=O)NCC(=O)N[C@H](C(=O)N[C@H](C(=O)N[C@H](C(=O)N[C@@H](CC(N)=O)C(=O)N[C@H](C(=O)N[C@@H](CCCCN)C(=O)N[C@H]1CSSC[C@@H]2NC(=O)[C@H](CCCCN)NC(=O)CNC(=O)[C@H](Cc3ccccc3)NC(=O)[C@H](CCCNC(=N)N)NC(=O)[C@H](CCSC)NC(=O)CNC(=O)[C@H](C)NC(=O)[C@H](CC(=O)O)NC(=O)[C@H](CCCCN)NC(=O)[C@@H]3CSSC[C@@H](C(=O)N[C@H](C(=O)N4CCC[C@H]4C(=O)N[C@@H](CCCCN)C(=O)O)[C@@H](C)O)NC(=O)[C@H](Cc4c[nH]cn4)NC(=O)[C@H](CSSC[C@H](NC(=O)[C@H](CCC(N)=O)NC(=O)[C@H](CCCNC(=N)N)NC(=O)[C@H](CO)NC(=O)[C@H]([C@@H](C)CC)NC(=O)[C@H](CCCCN)NC1=O)C(=O)N[C@@H](CC(C)C)C(=O)N[C@@H](CCCCN)C(=O)N1CCC[C@H]1C(=O)N3)NC(=O)[C@H](CCCCN)NC(=O)CNC(=O)[C@H](CC(N)=O)NC(=O)[C@H](CCSC)NC2=O)C(C)C)[C@@H](C)CC)[C@@H](C)CC)C(C)C (Pentanoyl-GVIINVKCKISRQCLKPCKDAGMRFGKCMNGKCHCTPK-OH; disulfide 8-28, 14-33, 18-35) | 16 |
